pIC50: −log10 of the molar value.
Experiments:
[1] = molecular target: recombinant human GCN2 protein (Homo sapiens, UniProt Q9P2K8); experiment: General control nonderepressible 2 (GCN2) inhibitory capacity, 33P-ATP filter assay; assay type: biochemical; settings: recombinant human GCN2, 70 uM [gamma-33P-ATP], 40 minutes, room temperature
phosphorylated GCN2 = molecular target: T1, phosphorylated GCN2 (Homo sapiens, UniProt Q9P2K8); experiment: Inhibition of phosphorylated GCN2 under amino acid deficiency in HT-1080 cells, Western blot; assay type: cell-based; settings: compound 50 nM, 24 hours; for Phospho-GCN2 inhibition: symbols ◯ / X not defined
T1 construct: endogenous in cells; host or cells: HT-1080
T1 sequence (Q9P2K8 whole entry): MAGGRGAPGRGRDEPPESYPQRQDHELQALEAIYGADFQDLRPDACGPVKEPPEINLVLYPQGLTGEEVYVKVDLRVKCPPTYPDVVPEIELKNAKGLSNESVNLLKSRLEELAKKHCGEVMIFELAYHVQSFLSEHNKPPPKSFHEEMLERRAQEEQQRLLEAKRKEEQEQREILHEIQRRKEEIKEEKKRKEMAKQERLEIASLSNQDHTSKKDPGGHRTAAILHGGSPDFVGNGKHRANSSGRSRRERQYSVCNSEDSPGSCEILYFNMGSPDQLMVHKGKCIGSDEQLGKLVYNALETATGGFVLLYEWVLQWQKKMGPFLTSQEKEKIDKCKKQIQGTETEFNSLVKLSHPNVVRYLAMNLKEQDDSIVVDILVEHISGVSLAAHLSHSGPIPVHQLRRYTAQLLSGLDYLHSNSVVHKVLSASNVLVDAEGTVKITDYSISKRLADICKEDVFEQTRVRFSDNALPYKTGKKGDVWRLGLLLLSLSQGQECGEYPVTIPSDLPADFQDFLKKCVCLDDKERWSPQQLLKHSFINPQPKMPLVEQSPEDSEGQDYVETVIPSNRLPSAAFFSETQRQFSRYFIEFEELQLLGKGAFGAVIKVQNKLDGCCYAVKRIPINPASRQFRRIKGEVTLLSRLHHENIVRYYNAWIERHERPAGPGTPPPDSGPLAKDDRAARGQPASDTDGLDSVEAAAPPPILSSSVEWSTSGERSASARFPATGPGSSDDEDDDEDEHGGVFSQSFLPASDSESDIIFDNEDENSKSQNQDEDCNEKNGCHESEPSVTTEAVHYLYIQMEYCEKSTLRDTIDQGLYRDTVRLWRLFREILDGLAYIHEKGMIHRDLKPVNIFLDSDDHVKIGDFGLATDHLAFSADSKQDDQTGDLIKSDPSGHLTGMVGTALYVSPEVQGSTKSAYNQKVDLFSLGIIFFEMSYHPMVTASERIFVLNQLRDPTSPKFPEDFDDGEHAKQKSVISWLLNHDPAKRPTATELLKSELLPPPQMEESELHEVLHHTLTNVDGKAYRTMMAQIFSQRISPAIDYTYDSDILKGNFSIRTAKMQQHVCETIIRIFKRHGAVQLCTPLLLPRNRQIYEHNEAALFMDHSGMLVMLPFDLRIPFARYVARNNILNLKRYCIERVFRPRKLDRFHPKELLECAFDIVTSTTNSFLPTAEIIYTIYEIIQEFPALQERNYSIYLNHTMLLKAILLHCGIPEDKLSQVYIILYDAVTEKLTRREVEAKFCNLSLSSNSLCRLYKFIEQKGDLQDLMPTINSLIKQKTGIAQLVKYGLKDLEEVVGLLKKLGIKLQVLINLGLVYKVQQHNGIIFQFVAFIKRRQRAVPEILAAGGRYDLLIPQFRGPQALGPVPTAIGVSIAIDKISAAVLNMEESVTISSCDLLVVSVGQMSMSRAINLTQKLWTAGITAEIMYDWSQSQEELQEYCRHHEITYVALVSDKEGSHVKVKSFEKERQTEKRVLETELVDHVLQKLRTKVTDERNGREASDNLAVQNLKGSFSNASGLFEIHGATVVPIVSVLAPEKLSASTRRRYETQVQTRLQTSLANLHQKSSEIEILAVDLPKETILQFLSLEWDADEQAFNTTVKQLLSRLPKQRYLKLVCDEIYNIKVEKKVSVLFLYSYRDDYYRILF
Method: (§1) <Experimental Example 5> Evaluation of Inhibitory Efficacy of ISR-Related Kinase GCN2 Under Amino Acid Deficiency Condition Using Western Blot
(§2) HT-1080 cells, a human fibrosarcoma cell line, were cultured in RPMI-1640 medium supplemented with 10% FBS, penicillin (penicillin; 100 IU/ml), and streptomycin (streptomycin; 100 μg/ml). Cells (1×10^6 cells/ml) were seeded onto 100 mm plates (polypropylene tissue culture plate) and incubated for 24 hours in a 37° C., 5% CO2 incubator before being used for experiments.
(§3) The following method was used to achieve amino acid deficiency conditions in cells. After 24 hours of cell culture, the cells were cultured in amino acids and L-glutamine-free RPMI-1640 medium supplemented with 10% FBS, penicillin (100 IU/ml), and streptomycin (100 μg/ml). After 24 hours of cell culture in RPMI-1640 without amino acids and L-glutamine, the compound prepared at a concentration of 50 nM was dispensed onto each plate and cultured for 24 hours in a 37° C., 5% CO2 incubator.
(§4) In order to measure the signal transduction inhibitory efficacy of GCN among the ISR-related kinases according to the present invention, the following experiment was performed using SDS-PAGE. The fibrosarcoma cell line HT-1080 cells cultured on plates as described above were washed with PBS after removing the culture medium. After removing PBS, the cells were lysed by adding a radio-immunoprecipitation assay buffer (RIPA buffer) containing 50 mM Tris (pH 7.4), 150 mM NaCl, 1% NP-40, 0.5% sodium deoxycholate, 2 mM sodium fluoride, 2 mM EDTA, 0.1% SDS, and a protease/phosphatase inhibitor cocktail to the plate. After centrifugation at 4° C., 13,000×g for 15 minutes, the protein in the upper layer was collected, and the protein concentration was measured at 562 nm using BCA (bicinchoninc acid) reagent, and the amount of protein in all samples was prepared at 20-50 μg.
(§5) After making the total volume the same using the sample buffer and RIPA buffer, it was heated at 97° C. for 5 minutes. Then, electrophoresis was performed on 8% or 12% SDS-PAGE at 80 V for 30 minutes and at 160 V for 1 hour and 30 minutes. After electrophoresis, the SDS-PAGE gel was transferred to an NC membrane (nitrocellulose membrane) at 90 V for 2 hours. The NC membrane was placed in TBST (tris buffer saline tween-20; 20 mM tris, 137 mM sodium chloride, 0.1% tween-20, pH 8.0) containing 5% non-fat skim milk, placed on a shaker, and reacted at room temperature for 1 hour.
(§6) Each primary antibody was diluted in TBST containing 5% non-fat skim milk, poured onto the NC membrane, and reacted at 4° C. for 24 hours. The membrane was washed three times for 10 minutes each with TBST. The secondary antibodies (anti-rabbit IgG and anti-mouse IgG labeled with horseradish peroxidase (HRP)) were diluted in TBST containing 5% non-fat skim milk and reacted with the membrane at room temperature for 1 hour. Upon completion of the reaction, the membrane was washed three times with TBST for 10 minutes each. Protein expression bands were detected by a chemiluminescence image analyzer (Image Quant LAS 500) after the ECL solution was reacted with the NC membrane.
GCN2, a key kinase of the integrated stress response (ISR), is phosphorylated in response to amino acid deficiency.

ATF4 = experiment: Inhibition of ATF4, downstream factor of ISR, in HT-1080 cells, Western blot (FIG. 1); assay type: cell-based, human; settings: amino acid deficiency, compound 50 nM, 24 hours
Method: as §1, §2, §3, §4, §5, §6
FIG. 1 is a set of photographs confirming the mechanism proteins that react upon ISR activation, wherein the numbers correspond to example numbers of the present invention. […] They are also known to have an effect on increasing the expression of CHOP (GADD153), the most downstream factor of the mechanism. […] Thus, in addition to the activation of ISR by amino acid deficiency, a significant effect can be expected on the mechanism of inhibition of the activity of PERK, an ISR-related kinase, due to endoplasmic reticulum stress response.

[2] = molecular target: recombinant human HRI protein (Homo sapiens, UniProt Q9BQI3); experiment: eIF2-alpha kinase heme-regulated inhibitor (HRI) inhibitory capacity, 33P-ATP filter assay; assay type: biochemical; settings: 45 uM [gamma-33P-ATP], 40 minutes, room temperature
Sequence of recombinant human HRI protein (Q9BQI3 whole entry): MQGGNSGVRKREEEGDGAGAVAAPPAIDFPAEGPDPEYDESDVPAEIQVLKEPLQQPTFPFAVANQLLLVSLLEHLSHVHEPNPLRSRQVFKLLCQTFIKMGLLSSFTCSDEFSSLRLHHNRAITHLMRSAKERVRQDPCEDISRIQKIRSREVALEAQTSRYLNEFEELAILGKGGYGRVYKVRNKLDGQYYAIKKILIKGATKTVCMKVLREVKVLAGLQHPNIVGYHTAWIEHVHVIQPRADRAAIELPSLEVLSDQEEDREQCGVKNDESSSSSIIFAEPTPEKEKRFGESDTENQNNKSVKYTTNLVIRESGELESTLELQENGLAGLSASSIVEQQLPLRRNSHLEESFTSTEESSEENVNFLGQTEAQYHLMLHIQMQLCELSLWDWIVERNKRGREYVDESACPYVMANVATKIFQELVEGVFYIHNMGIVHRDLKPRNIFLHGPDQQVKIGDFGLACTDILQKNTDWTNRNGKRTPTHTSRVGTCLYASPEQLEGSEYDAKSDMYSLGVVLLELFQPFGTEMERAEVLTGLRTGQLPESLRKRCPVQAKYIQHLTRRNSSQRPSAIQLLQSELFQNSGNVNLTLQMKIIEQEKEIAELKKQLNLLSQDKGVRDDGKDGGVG
Method: <Experimental Example 3> Evaluation of eIF2-Alpha Kinase Heme-Regulated Inhibitor (HRI) Inhibitory Capacity
A recombinant human HRI protein was mixed with the compound in a reaction solution (50 mM Tris/HCl pH 7.5, 0.04 mM EDTA, 300 uM RSRSRSRSRSRSRSR, 10 mM Magnesium acetate, 45 uM [gamma-33P-ATP]) and reacted at room temperature for 40 minutes. Then, the reaction was terminated by adding phosphoric acid (0.5%) to the reaction mixture, and […] of the reaction solution was dropped onto a P30 filter. The filter was washed four times in a 0.425% phosphoric acid solution for 4 minutes, then […] washed once more in methanol, dried, and the HRI activity was measured by scintillation counting. […] The compound was diluted by 1/3 from the highest concentration of 1 uM and treated with a total of 9 concentrations to evaluate the degree of inhibition.

[3] = molecular target: recombinant human PKR protein (Homo sapiens, UniProt P19525); experiment: Protein kinase R (PKR) inhibitory capacity, 33P-ATP filter assay; assay type: biochemical; settings: 15 uM [gamma-33P-ATP], 40 minutes, room temperature
Sequence of recombinant human PKR protein (P19525 whole entry): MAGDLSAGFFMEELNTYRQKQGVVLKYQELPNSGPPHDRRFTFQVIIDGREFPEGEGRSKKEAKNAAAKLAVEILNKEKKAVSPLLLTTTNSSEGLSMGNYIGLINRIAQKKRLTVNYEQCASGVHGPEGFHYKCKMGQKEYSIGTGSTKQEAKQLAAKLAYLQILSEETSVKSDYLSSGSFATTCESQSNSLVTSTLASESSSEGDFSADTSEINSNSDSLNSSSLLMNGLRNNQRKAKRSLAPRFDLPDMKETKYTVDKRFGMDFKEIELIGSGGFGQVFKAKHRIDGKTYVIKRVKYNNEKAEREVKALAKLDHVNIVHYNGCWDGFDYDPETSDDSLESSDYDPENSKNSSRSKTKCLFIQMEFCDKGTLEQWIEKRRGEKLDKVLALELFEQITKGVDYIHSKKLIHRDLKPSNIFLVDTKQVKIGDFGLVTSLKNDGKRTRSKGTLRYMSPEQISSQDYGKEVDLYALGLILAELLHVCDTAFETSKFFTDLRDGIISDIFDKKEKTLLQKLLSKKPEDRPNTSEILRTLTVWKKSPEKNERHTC
Method: <Experimental Example 4> Evaluation of Protein Kinase R (PKR) Inhibitory Capacity
(§7) A recombinant human PKR protein was mixed with the compound in a reaction solution (8 mM MOPS pH 7.0, 0.2 mM EDTA, 20 uM RSRSRSRSRSRSRSR, 10 mM Magnesium acetate, 15 uM [gamma-33P-ATP]) and reacted at room temperature for 40 minutes. Then, the reaction was terminated by adding phosphoric acid (0.5%) to the reaction mixture, and 10 ul of the reaction solution was dropped onto a P30 filter. The filter was washed four times in a 0.425% phosphoric acid solution for 4 minutes, then washed once more in methanol, dried, and the PKR activity was measured by scintillation counting. […] The compound was diluted by 1/3 from the highest concentration of 1 uM and treated with a total of 9 concentrations to evaluate the degree of inhibition.

[4] = molecular target: T2, recombinant human PERK protein (Homo sapiens, UniProt Q9NZJ5); experiment: PKR-like endoplasmic reticulum kinase (PERK) inhibitory capacity, 33P-ATP filter assay; assay type: biochemical; settings: 15 uM [gamma-33P-ATP], 40 minutes, room temperature
T2 sequence (Q9NZJ5 30-1116): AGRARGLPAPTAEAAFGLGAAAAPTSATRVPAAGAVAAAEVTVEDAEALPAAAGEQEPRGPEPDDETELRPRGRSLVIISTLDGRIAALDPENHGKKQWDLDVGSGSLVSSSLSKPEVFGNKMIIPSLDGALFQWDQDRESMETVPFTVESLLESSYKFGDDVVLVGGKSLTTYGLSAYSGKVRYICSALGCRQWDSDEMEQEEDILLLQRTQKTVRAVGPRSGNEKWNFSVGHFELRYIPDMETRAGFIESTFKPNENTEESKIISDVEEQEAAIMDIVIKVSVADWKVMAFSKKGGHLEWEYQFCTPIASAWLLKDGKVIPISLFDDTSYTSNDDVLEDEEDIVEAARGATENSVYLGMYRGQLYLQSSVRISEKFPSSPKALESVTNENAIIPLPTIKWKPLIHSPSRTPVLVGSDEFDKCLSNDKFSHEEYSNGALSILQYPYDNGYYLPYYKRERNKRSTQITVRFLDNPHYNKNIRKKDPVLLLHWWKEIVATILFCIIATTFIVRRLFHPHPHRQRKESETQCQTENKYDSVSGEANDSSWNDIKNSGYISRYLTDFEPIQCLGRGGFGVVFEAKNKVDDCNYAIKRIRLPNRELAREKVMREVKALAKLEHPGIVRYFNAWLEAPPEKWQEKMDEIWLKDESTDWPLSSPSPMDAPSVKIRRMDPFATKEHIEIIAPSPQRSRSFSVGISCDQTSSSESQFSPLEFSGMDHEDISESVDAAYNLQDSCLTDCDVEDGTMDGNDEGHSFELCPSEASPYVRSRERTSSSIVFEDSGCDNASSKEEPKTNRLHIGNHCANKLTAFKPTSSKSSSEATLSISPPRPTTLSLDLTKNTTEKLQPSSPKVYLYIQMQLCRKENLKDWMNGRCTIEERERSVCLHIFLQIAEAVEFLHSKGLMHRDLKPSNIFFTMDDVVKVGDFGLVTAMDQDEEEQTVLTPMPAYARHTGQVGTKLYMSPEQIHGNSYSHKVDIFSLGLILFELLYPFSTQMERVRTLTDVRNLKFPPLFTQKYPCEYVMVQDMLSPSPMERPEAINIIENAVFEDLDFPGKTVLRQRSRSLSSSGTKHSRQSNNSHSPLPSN
Method: <Experimental Example 1> Evaluation of PKR-Like Endoplasmic Reticulum Kinase (PERK) Inhibitory Capacity
as §7, with “PERK” for “PKR”, “300” for “20”

Sequence of recombinant human GCN2 protein (Q9P2K8 whole entry): as the sequence (Q9P2K8 whole entry) above

Row | pIC50 [1] | inhibitory effect on the phosphorylated GCN2 (phosphorylated GCN2) | Phospho-GCN2 inhibition (phosphorylated GCN2) | pIC50 [2] | pIC50 [3] | pIC50 [4] | SMILES | inhibitory effect on ATF4 (FIG. 1) (ATF4)
1 | 6.52 to 7.00 | excellent inhibitory effects | ◯ | – | – | – | Cn1c(=O)n(-c2c(F)ccc(NS(=O)(=O)c3cccc4ccccc34)c2F)c(=O)c2cnc(N)nc21 [Example 43, N-(3-(7-amino-1-methyl-2,4-dioxo-1,4-dihydropyrimido[4,5-d]pyrimidin-3(2H)-yl)-2,4-difluorophenyl)naphthalene-1-sulfonamide] | excellent inhibitory effects
2 | 6.52 to 7.00 | excellent inhibitory effects | ◯ | – | – | – | COc1ccc(Br)cc1S(=O)(=O)Nc1ccc(F)c(-n2c(=O)c3cnc(N)nc3n(C)c2=O)c1F [Example 51, N-(3-(7-amino-1-methyl-2,4-dioxo-1,2-dihydropyrimido[4,5-d]pyrimidin-3(4H)-yl)-2,4-difluorophenyl)-5-bromo-2-methoxybenzenesulfonamide] | excellent inhibitory effects
3 | > 7.00 | – | – | 6.52 to 7.00 | 6.00 to 6.52 | > 7.00 | Cn1c(=O)n(-c2c(F)ccc(NS(=O)(=O)c3cc(Cl)cnc3Cl)c2F)c(=O)c2cnc(N)nc21 [Example 57, N-(3-(7-amino-1-methyl-2,4-dioxo-1,4-dihydropyrimido[4,5-d]pyrimidin-3(2H)-yl)-2,4-difluorophenyl)-2,5-dichloropyridine-3-sulfonamide] | –

From patent publication US20260184706A1, “PHENYLSULFONAMIDE DERIVATIVES, PREPARATION METHOD THEREFOR, AND PHARMACEUTICAL COMPOSITION FOR PREVENTION OR TREATMENT OF CANCER CONTAINING SAME AS ACTIVE INGREDIENT” (Korea Research Institute of Chemical Technology, priority 2022, published 2026)
